# Experimental data as given in paper PMC12439338, “Designer amphiphilic helical peptide-decorated nanomicelles enable simultaneous inflammation control and triple-destruction of bacteria for treating bacterial pneumonia and sepsis” (Theranostics, 2025).
# Where a SMILES comes first, the peptide text is derived from it.
# What was measured:
# [1] = tested on: TLR4/MD-2 complex; set-up: method as in PMID 35238667; details: cited from earlier work
# [2] = right after preparation and overnight storage
# [3] = tested on: bacteria-induced sepsis mouse models; details: cited from earlier work
# From the text: The gene expressions of TLR2 and TLR4 in these patients were also correlated with that of the inflammatory cytokine IL1B (Figure S1C-F). These analyses together with reported literatures indeed confirmed the TLR2 and TLR4 up-regulation as a strong pathogenic factor in sepsis patients. Moreover, studies have shown that TLR4 knockout mice ...
# [4] = tested on: LPS / TLR4; set-up: method as in 3 sources, ref 25 = [25]; PMID 34183393; doi:10.1073/pnas.2101721118; 25 Schromm AB Paulowski L Kaconis Y Kopp F Koistinen M Donoghue A Cathelicidin and PMB neutralize endotoxins by multifactorial mechanisms including LPS interaction and targeting of host cell membranes ||| ref 18, 19 = [18]; PMID 17237433; doi:10.4049/jimmunol.178.3.1829; 18 Di Nardo A Braff MH Taylor KR Na C Granstein RD McInturff JE Cathelicidin antimicrobial peptides block dendritic cell TLR4 activation and allergic contact sensitization J Immunol 2007 178 1829 34 1 || [19]; PMID 32582207; doi:10.3389/fimmu.2020.01137; 19 Scheenstra MR van Harten RM Veldhuizen EJA Haagsman HP Coorens M Cathelicidins modulate TLR-activation and inflammation Front Immunol 2020 11 1137 32582207 10.3389/fimmu.2020.01137 PMC7296178 ||| ref 44 = [44]; PMID 31364070; doi:10.1007/978-3-030-16373-0_4; 44 Li Z Velkov T Polymyxins: mode of action Adv Exp Med Biol 2019 1145 37 54 31364070 10.1007/978-3-030-16373-0_4; details: cited from earlier work
# From the text: Bioactive peptides are functional biopolymers that can be de novo designed or derived from nature with immunoregulatory and antimicrobial activities. For example, naturally existed antimicrobial peptides (AMPs) are key players in the host-defense mechanism against the invasion of various pathogens including bacteria, fungi, viruses and parasites, [17], through the disruption of microorganism membranes. This working mechanism makes AMPs more advantageous over traditional antibiotics due to less chance for the development of drug resistance. In addition to elimination of microbes, some AMPs ... || Polymyxin B (PMB), a cationic cyclic peptide, is one of the last-line antibiotics to treat drug-resistant bacterial infection in the clinic. […] To assess the potency of our newly designed R18, we made the head-to-head comparison between R18 and polymyxin B on their TLR4 and TLR2 inhibitory activities.
# [5] = tested on: TLR4 signaling (LPS-induced NF-κB/AP-1 and IRF activation) in THP-1 reporter cell-derived macrophages; assay: NF-κB/AP-1 and IRF reporter assay, LPS (TLR4); assay type: cell-based, human
# Procedure: (§1) Cell culture. THP-1 cells were cultured in the RPMI 1640 complete medium supplemented with 10% FBS, 2 mM L-glutamine, and 1 mM sodium pyruvate, in a cell incubator containing 5% CO2 at 37°C. Zeocin (200 μg/mL or 100 μg/mL) was added to the complete medium as the selection pressure for THP-1-XBlue or THP-1-ISG reporter cells. Cells were seeded into a 96-well plate (1×10^5 cells/well) or a 24-well plate (5×10^5 cells/well), and differentiated into macrophages with PMA (50 ng/mL) for 24 h. […] The culture medium supernatants and cell lysates were collected for further analysis.
# (§2) NF-κB/AP-1 and IRF reporter assay. THP-1-XBlue and THP-1-ISG reporter cells were used to assess the activation of NF-κB/AP-1 and IRF, respectively. After treatments, the culture medium (20 μL per well) was collected and mixed with the Quanti-Blue solution (180 μL) in a clean 96-well plate, which was incubated for 1-2 h at 37°C until the solution color turned into dark purple. The solution absorption at 655 nm was acquired on a microplate reader (TECAN, Mannedorf, Zurich, Switzerland).
# [6] = tested on: TLR2 signaling (Pam3CSK4-induced NF-κB/AP-1 activation) in THP-1 reporter cell-derived macrophages; assay: NF-κB/AP-1 reporter assay, Pam3CSK4 (TLR2); assay type: cell-based, human; details: 2.5, 5 and 10 μM, Pam3CSK4 10 ng/mL, co-treatment, N = 3
# Procedure: as §1, §2
# [7] = tested on: Gram-positive bacterial infection; details: cited from earlier work
# From the text: (§3) The fast-increasing cases of sepsis or pneumonia caused by multidrug-resistant Gram-negative bacteria in the clinics have become a global health emergency, [30]. Currently, the peptide-based polymyxin B is the last line of antibiotics to fight multidrug-resistant Gram-negative bacteria. […] Th ...
# [8] = cited from earlier work
# From the text: as §3
molecule,measurement,setting,value
papiliocin,binding to TLR4/MD-2,[1],directly bind to the TLR4/MD-2 complex in order to block LPS-TLR4 interactions
CC(C)C[C@H](NC(=O)[C@H](CC(C)C)NC(=O)[C@H](CCCNC(=N)N)NC(=O)[C@H](Cc1c[nH]c2ccccc12)NC(=O)[C@H](CC(C)C)NC(=O)[C@H](CCCNC(=N)N)NC(=O)[C@H](CCCNC(=N)N)NC(=O)[C@H](Cc1c[nH]c2ccccc12)NC(=O)[C@H](CC(C)C)NC(=O)[C@H](CCCNC(=N)N)NC(=O)[C@H](CC(C)C)NC(=O)[C@H](Cc1c[nH]c2ccccc12)NC(=O)[C@H](CCCNC(=N)N)NC(=O)[C@H](CCCNC(=N)N)NC(=O)[C@H](CC(C)C)NC(=O)[C@H](Cc1c[nH]c2ccccc12)NC(=O)[C@@H](N)CCCNC(=N)N)C(=O)N[C@@H](CCCNC(=N)N)C(N)=O [R18] (H-RWLRRWLRLWRRLWRLLR-NH2),stability and dispersibility in PBS,[2],tended to form milky colloidal suspensions and precipitate overnight
CCOC(=O)C1=CCCC[C@H]1S(=O)(=O)Nc1ccc(F)cc1Cl [TAK-242],disease severity in sepsis mouse models,[3],successfully reduced the disease severity in bacteria-induced sepsis mouse models
LL-37: human host-defense peptide cathelicidin,modulation of TLR4-triggered responses via LPS binding,[4],capable of modulating TLR4-triggered inflammatory responses
polymyxin B,inhibition of LPS-induced NF-κB/AP-1 and IRF activation,[5],able to effectively inhibit LPS-induced activation
same,TLR4-mediated inflammation inhibition by antagonizing LPS,[4],capable of inhibiting TLR4-mediated inflammatory responses by antagonizing LPS
same,TLR4 antagonism by LPS neutralization,[4],TLR4 antagonist by neutralizing the bacterial product LPS
same,inhibition of Pam3CSK4-induced NF-κB/AP-1 activation,[6],had no effect on TLR2 inhibition
same,effectiveness against Gram-positive bacterial infection and inflammation,[7],not effective against Gram-positive bacterial infection and the associated inflammation
same,clinical toxicity,[8],has neurotoxicity and often causes some serious kidney problems
